Values joined by “and” are separate entries in the source; they are usually repeats but may differ in a detail not shown here. Equal entries are not always repeated.
Columns and labels:
hCE1 = target: T1, hCE1 (Homo sapiens, UniProt P23141); experiment: hCE1 inhibition assay (DME hydrolysis in human liver microsomes); format: biochemical; details: DME probe substrate (3 μM), HLM, PBS pH 6.8, 37 °C
T1 construct: tissue Bioreclamation IVT lot no; X008067; host or cells: pooled human liver microsomes, 50 donors
T1 sequence (P23141 18-567): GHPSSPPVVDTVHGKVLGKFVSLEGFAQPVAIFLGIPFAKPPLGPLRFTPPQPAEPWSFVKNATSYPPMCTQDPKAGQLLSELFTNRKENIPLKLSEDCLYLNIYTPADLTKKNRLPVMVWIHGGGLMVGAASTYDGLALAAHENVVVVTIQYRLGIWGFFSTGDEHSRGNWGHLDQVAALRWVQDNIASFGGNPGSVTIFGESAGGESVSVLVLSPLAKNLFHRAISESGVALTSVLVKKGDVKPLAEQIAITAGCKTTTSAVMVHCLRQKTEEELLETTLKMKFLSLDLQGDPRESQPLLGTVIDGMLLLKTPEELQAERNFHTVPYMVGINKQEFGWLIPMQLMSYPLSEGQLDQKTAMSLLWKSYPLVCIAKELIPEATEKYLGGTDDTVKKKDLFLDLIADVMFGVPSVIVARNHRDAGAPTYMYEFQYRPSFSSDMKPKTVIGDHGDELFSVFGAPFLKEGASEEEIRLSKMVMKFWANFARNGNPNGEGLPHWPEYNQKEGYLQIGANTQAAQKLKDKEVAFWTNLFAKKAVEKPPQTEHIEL
Source text: We designed and synthesized more than 30 derivatives of DCZ0358. However, the five-ring quaternary ammonium component of some derivatives was unstable to decompose easily into its hydrolyzate 23b. With 12 stable compounds in hand, we conducted experiments to assay inhibitory activities against both hCE1 and hCE2 using a panel of fluorescent probe substrates.[33–36]D-Luciferin methyl ester (DME) was used as a probe substrate, and nevadensin (a specific hCE1 inhibitor) was used as a positive inhibitor control for hCE1. […] DME was used as a probe substrate for evaluating the inhibitory effects of all DCZ0358 derivatives on hCE1, while nevadensin (a specific hCE1 inhibitor) was used as a positive control.[39] Briefly, 100 μL incubation mixture containing 91 μL PBS (pH 6.8), 2 μL inhibitor at different concentrations and 5 μL HLM (1 μg mL^−1, final concentration), were pre-incubated at 37 °C for 10 min. Subsequently, 2 μL DME (3 μM final concentration, close to the Km value of DME in HLM) was added to initiate the reaction. After incubating for 10 min at 37 °C in a shaking bath, the reaction was stopped by the addition of LDR (100 μL). The microplate reader (SpectraMax® iD3, Molecular Devices, Austria) was used for luminescence measurements. The gain value of luminescence detection was set at 140 volts, and the integration time was set at 1 s. The chemical structure of DME and its hydrolytic metabolite (D-luciferin), as well as the detection conditions for D-luciferin are depicted in Table S1. ^† The negative control incubation (DMSO only) was carried out under the same conditions. The residual activity was calculated using the following formula, the residual activity (%) = (the florescence intensity in the presence of inhibitor)/the florescence intensity in negative control × 100%. The residual activities are show in Fig. S1. ^†

hCE2 = target: T2, hCE2 (Homo sapiens, UniProt O00748); experiment: hCE2 inhibition assay (FD hydrolysis in human liver microsomes); format: biochemical; details: for IC50: FD probe substrate (5 μM), HLM, PBS pH 7.4, 37 °C; for Selectivity IC50(hCE1)/IC50(hCE2): ratio of IC50 values, hCE2 over hCE1 selectivity (fold)
T2 construct: tissue Bioreclamation IVT lot no; X008067; host or cells: pooled human liver microsomes, 50 donors
T2 sequence (O00748 27-559): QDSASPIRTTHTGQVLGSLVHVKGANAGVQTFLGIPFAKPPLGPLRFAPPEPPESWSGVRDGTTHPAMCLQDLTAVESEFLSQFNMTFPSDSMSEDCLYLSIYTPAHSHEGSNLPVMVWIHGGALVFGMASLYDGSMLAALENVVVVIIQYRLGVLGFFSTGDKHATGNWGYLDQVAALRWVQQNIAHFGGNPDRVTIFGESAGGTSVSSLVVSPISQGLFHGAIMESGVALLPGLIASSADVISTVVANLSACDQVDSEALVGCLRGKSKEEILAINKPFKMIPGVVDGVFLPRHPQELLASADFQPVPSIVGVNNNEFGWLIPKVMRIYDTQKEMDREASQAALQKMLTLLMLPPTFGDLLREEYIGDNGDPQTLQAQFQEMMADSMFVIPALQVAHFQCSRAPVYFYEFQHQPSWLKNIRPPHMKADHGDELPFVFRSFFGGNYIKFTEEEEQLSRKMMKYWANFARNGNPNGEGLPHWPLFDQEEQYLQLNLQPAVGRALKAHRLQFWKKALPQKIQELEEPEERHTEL
Experimental: In brief, 200 μL incubation mixture containing 0.1 M PBS (PH = 7.4), human liver microsomes (2 μg mL^−1, final concentration) and each inhibitor. […] After incubating for 30 min at 37 °C in a shaking bath, the reaction was stopped by the addition of acetonitrile (200 μL). The chemical structure of FD and its hydrolytic metabolite (fluorescein), as well as the detection conditions for fluorescein are depicted in Table S1. ^† The negative control incubation (DMSO only) was also carried out under the same conditions.[42] The residual activity was calculated using the formula mentioned above in hCE1 inhibition assay.

intracellular hCE2 = target: T3, intracellular hCE2 (Homo sapiens, UniProt O00748); experiment: Inhibition of intracellular hCE2 in living HepG2 cells (NCEN hydrolysis, fluorescence imaging); format: cell-based
T3 construct: endogenous in cells; host or cells: HepG2
T3 sequence (O00748 27-559): T2 sequence (O00748 27-559)
Experimental: In view of that hCE2 was an intracellular enzyme, the inhibition potential of 23o was investigated in living HepG2 cells. The HepG2 cells were cultured in Modified Eagle's Medium (MEM) with 5% CO2 and 0.1% antibiotic–antimycoticmix antibiotic at 37 °C, supplemented with 10% fetal bovine serum (FBS) and used NCEN as substrate probe to assay the 23o inhibition potential toward hCE2.
For fluorescence imaging, HepG2 cells were seeded in 96-well plates (8000 cells per well) with complete medium and then incubated for 24 hours. Afterwards, the cells were washed twice with FBS-free culture medium and then preincubated in the medium containing 23o (prepared in FBS-free at various concentrations) for 30 min with 5% CO2 at 37 °C. HepG2 cells were then co-incubated with NCEN (final concentration, 10 μM) for another 50 min to assess the intracellular hCE2 function, respectively. The living cells were imaged and analyzed using an ImageXpress® Micro Confocal High-Content Imaging system (Molecular Devices, Austria).

IC50 (hCE1) | IC50 (hCE2) | Selectivity IC50(hCE1)/IC50(hCE2) (hCE2) | IC50 (intracellular hCE2; HepG2 cells, NCEN 10 μM substrate, read-out: IC50 against intracellular hCE2 in living HepG2 cells) | Inhibition of intracellular hCE2-mediated NCEN hydrolysis (fluorescence intensity, green channel) (intracellular hCE2; living HepG2 cells, 0-20 μM, NCEN 10 μM, 50 min) | Ki (hCE2; Lineweaver-Burk plots, FD substrate, read-out: Ki against hCE2-mediated FD hydrolysis) | Inhibition mode against hCE2-mediated FD hydrolysis (hCE2; inhibition kinetics, FD substrate) | Compound
> 100 µM | 6.89 µM | >14.52 | – | – | – | – | COc1ccc(COc2cc(-c3cc4ccc(OC)c(OC)c4c4[n+]3C(OC)CO4)ccc2OC)cc1 (centres unmarked) [Compound 23d, 3,9,10-trimethoxy-5-(4-methoxy-3-((4-methoxybenzyl)oxy)phenyl)-2,3-dihydrooxazolo[2,3-a]isoquinolin-4-ium]
> 100 µM | 11.5 ± 1.76 µM | >8.72 | – | – | – | – | COc1ccc(-c2cc3ccc(OC)c(OC)c3c3[n+]2C(OC)CO3)cc1OCc1ccc(S(C)(=O)=O)cc1 (centres unmarked) [Compound 23e, 3,9,10-Trimethoxy-5-(4-methoxy-3-((4-(methylsulfonyl)benzyl)oxy)phenyl)-2,3-dihydrooxazolo[2,3-a]isoquinolin-4-ium]
> 100 µM | 3.33 ± 0.32 µM | >30.07 | – | – | – | – | COc1ccc(-c2cc3ccc(OC)c(OC)c3c3[n+]2C(OC)CO3)cc1OCc1ccc(C#N)cc1 (centres unmarked) [Compound 23g, 5-(3-((4-Cyanobenzyl)oxy)-4-methoxyphenyl)-3,9,10-trimethoxy-2,3-dihydrooxazolo[2,3-a]isoquinolin-4-ium]
> 100 µM | 3.32 ± 0.87 µM | >30.14 | – | – | – | – | COc1ccc(-c2cc3ccc(OC)c(OC)c3c3[n+]2C(OC)CO3)cc1OCc1ccc([N+](=O)[O-])cc1 (centres unmarked) [Compound 23h, 3,9,10-Trimethoxy-5-(4-methoxy-3-((4-nitrobenzyl)oxy)phenyl)-2,3-dihydrooxazolo[2,3-a]isoquinolin-4-ium]
> 100 µM | 5.58 ± 0.94 µM | >17.94 | – | – | – | – | COc1ccc(-c2cc3ccc(OC)c(OC)c3c3[n+]2C(OC)CO3)cc1OCc1ccc(C)cc1 (centres unmarked) [Compound 23k, 3,9,10-Trimethoxy-5-(4-methoxy-3-((4-methylbenzyl)oxy)phenyl)-2,3-dihydrooxazolo[2,3-a]isoquinolin-4-ium]
> 100 µM | 2.33 ± 0.2 µM | >42.81 | – | – | – | – | COc1ccc(-c2cc3ccc(OC)c(OC)c3c3[n+]2C(OC)CO3)cc1OCc1ccc(C(C)(C)C)cc1 (centres unmarked) [Compound 23m, 5-(3-((4-(tert-Butyl)benzyl)oxy)-4-methoxyphenyl)-3,9,10-trimethoxy-2,3-dihydrooxazolo[2,3-a]isoquinolin-4-ium]
> 100 µM | 1.66 ± 0.21 µM | >60.31 | – | – | – | – | COc1ccc(-c2cc3ccc(OC)c(OC)c3c3[n+]2C(OC)CO3)cc1OCc1ccc(C(C)C)cc1 (centres unmarked) [Compound 23n, 5-(3-((4-Isopropylbenzyl)oxy)-4-methoxyphenyl)-3,9,10-trimethoxy-2,3-dihydrooxazolo[2,3-a]isoquinolin-4-ium]

More lines, now with the values behind:

Compound | IC50 (hCE1) | IC50 (hCE2) | Selectivity IC50(hCE1)/IC50(hCE2) (hCE2) | IC50 (intracellular hCE2; HepG2 cells, NCEN 10 μM substrate, read-out: IC50 against intracellular hCE2 in living HepG2 cells) | Inhibition of intracellular hCE2-mediated NCEN hydrolysis (fluorescence intensity, green channel) (intracellular hCE2; living HepG2 cells, 0-20 μM, NCEN 10 μM, 50 min) | Ki (hCE2; Lineweaver-Burk plots, FD substrate, read-out: Ki against hCE2-mediated FD hydrolysis) | Inhibition mode against hCE2-mediated FD hydrolysis (hCE2; inhibition kinetics, FD substrate)
COc1ccc2cc(-c3ccc4c(c3)OCO4)[n+]3c(c2c1OC)OCC3OC (centres unmarked) [Compound 23a] | 4.04 ± 0.4 µM | 16 ± 1.49 µM | >0.25 | – | – | – | –
COc1ccc2cc(-c3ccc4c(c3)OCO4)n(C(CO)OC)c(=O)c2c1OC (centres unmarked) [Compound 23b] | 36.8 ± 7.7 µM | 41.7 ± 18.1 µM | >0.88 | – | – | – | –
COC(=O)c1ccc(COc2cc(-c3cc4ccc(OC)c(OC)c4c4[n+]3C(OC)CO4)ccc2OC)cc1 (centres unmarked) [Compound 23f, 3,9,10-Trimethoxy-5-(4-methoxy-3-((4-(methoxycarbonyl)benzyl)oxy)phenyl)-2,3-dihydrooxazolo[2,3-a]isoquinolin-4-ium] | > 100 µM | 5.73 ± 0.79 µM | >17.46 | – | – | – | –
COc1ccc(-c2cc3ccc(OC)c(OC)c3c3[n+]2C(OC)CO3)cc1OCc1ccc(C(F)(F)F)cc1 (centres unmarked) [Compound 23i, 3,9,10-Trimethoxy-5-(4-methoxy-3-((4-(trifluoromethyl)benzyl)oxy)phenyl)-2,3-dihydrooxazolo[2,3-a]isoquinolin-4-ium] | > 100 µM | 2.43 ± 0.28 µM | >41.22 | – | – | – | –
COc1ccc(-c2cc3ccc(OC)c(OC)c3c3[n+]2C(OC)CO3)cc1OCc1ccc2cccnc2c1 (centres unmarked) [Compound 23j, 3,9,10-Trimethoxy-5-(4-methoxy-3-(quinolin-7-ylmethoxy)phenyl)-2,3-dihydrooxazolo[2,3-a]isoquinolin-4-ium] | > 100 µM | 3.77 ± 0.25 µM | >26.51 | – | – | – | –
COc1ccc(-c2cc3ccc(OC)c(OC)c3c3[n+]2C(OC)CO3)cc1OCc1ccc(-c2ccccc2)cc1 (centres unmarked) [Compound 23l, 5-(3-([1,1′-Biphenyl]-4-ylmethoxy)-4-methoxyphenyl)-3,9,10-trimethoxy-2,3-dihydrooxazolo[2,3-a]isoquinolin-4-ium] | > 100 µM | 2.64 ± 0.45 µM | >37.89 | – | – | – | –
COc1cc(COc2cc(-c3cc4ccc(OC)c(OC)c4c4[n+]3C(OC)CO4)ccc2OC)cc(OC)c1 (centres unmarked) [Compound 23o, 5-(3-((3,5-Dimethoxybenzyl)oxy)-4-methoxyphenyl)-3,9,10-trimethoxy-2,3-dihydrooxazolo[2,3-a]isoquinolin-4-ium] | > 100 µM | 1.19 µM | >83.89 | 2.29 µM | strongly inhibit | 0.84 µM and 0.843 µM | mixed inhibitor
COc1ccc(-c2cc(=O)c3c(O)c(OC)c(O)c(OC)c3o2)cc1 [Nevadensin, reference compound] | 2.64 ± 0.22 µM | – | – | – | – | – | –

Reference: article PMC9074662, “Discovery of dihydrooxazolo[2,3-a]isoquinoliniums as highly specific inhibitors of hCE2” (RSC Advances, 2019)
